Experimental data as given in US20080261994A1, “CYCLOPROPANE COMPOUNDS AND PHARMACEUTICAL USE THEREOF” (Japan Tobacco Inc., priority 2003, published 2008).
Read-outs that look alike come from different tables or passages of the source.

Tests used:
Format in all cases: biochemical
aggrecanase-1 = biological target: T1, aggrecanase-1 (Homo sapiens, UniProt O75173); assay: Aggrecanase-1 inhibitory action (Particle Assay, GAG release from aggrecan-containing polyacrylamide particles)
T1 sequence (O75173 213-837): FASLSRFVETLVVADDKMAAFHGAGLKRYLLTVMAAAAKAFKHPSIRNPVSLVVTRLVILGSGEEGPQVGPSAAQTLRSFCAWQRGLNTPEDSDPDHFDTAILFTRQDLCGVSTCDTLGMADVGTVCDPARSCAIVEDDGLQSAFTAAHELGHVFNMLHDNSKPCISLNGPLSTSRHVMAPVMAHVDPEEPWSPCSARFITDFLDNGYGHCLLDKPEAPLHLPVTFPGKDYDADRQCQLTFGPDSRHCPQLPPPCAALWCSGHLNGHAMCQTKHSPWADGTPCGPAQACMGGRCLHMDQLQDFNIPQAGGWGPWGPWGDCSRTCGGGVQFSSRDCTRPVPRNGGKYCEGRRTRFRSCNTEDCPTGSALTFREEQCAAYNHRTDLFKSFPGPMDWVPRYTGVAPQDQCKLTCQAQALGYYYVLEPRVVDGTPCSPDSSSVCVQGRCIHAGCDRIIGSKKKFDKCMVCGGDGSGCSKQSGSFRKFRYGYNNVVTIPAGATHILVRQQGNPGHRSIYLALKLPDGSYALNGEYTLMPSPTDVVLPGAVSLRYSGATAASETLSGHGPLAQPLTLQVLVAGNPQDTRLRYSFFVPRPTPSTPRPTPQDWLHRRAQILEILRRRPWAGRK
Outline: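 Readout was dimethylmethylene blue absorbance (595 nm) of glycosaminoglycan liberated into supernatant, calibrated with whale chondroitin sulfate. Substrate was aggrecan in polyacrylamide particles, digested 15 h at 37° C in Tris-HCl; TC50 (μM) derived from inhibition relative to no-enzyme and no-inhibitor controls.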

MMP-1 = biological target: T2, MMP-1 (Homo sapiens, UniProt P03956); assay: MMP-1 inhibitory action (Type I collagen Activity Measurement kit, FITC-labeled collagen type I)
T2 sequence (P03956 100-469): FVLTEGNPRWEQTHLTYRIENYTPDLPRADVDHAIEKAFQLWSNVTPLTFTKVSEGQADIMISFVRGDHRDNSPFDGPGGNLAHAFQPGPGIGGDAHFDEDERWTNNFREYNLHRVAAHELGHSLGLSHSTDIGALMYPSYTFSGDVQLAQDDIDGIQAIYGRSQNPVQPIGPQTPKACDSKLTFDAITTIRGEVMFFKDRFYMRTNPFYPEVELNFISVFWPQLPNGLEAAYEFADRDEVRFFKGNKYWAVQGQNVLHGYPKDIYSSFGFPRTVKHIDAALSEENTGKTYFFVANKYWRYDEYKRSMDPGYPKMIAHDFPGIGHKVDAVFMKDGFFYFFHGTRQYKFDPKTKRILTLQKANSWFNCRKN

Recombinant Human MMP-13 = biological target: T3, Recombinant Human MMP-13 (Homo sapiens, UniProt P45452); assay: MMP-13 inhibitory activity (MMP-13 specific fluorescent substrate with quencher)
T3 construct: purchased R&D systems 511-MM
Outline: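 IC50 (μM) derived from % inhibition, normalised to wells without enzyme and without inhibitor, fluorescence read at 325/405 nm. Enzyme and compound preceded addition of the quenched 7-MCA…DPA substrate; Tris-HCl buffer, 25 °C for 1 h, acetic-acid stop.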

[1] = aggrecanase-1 inhibitory action, read-out: IC50 AG1 (Experimental Example 1)
[2] = MMP-1 inhibitory action, FITC-labeled collagen type I, 37° C. for 3 hr, read-out: IC50 MMP1 (Experimental Example 2)
[3] = Recombinant Human MMP-13, fluorescent substrate, 25° C. for 1 h, read-out: IC50 MMP13 (Experimental Example 3)
[4] = Experimental Example 1, read-out: IC50 AG1
[5] = Experimental Example 2, read-out: IC50 MMP1
[6] = Experimental Example 3, read-out: IC50 MMP13

Row | SMILES | IC50 (aggrecanase-1; [1]) [µM] | IC50 (MMP-1; [2]) [µM] | IC50 (Recombinant Human MMP-13; [3]) [µM] | IC50 (aggrecanase-1; [4]) [µM] | IC50 (MMP-1; [5]) [µM] | IC50 (Recombinant Human MMP-13; [6]) [µM]
1 | CC(F)(F)c1cc(-c2ccc(S(=O)(=O)N[C@@]3(C(=O)O)C[C@@H]3c3ccccc3)s2)ns1 [Example 2-124] | < 0.1 | ≥ 1 | < 0.1 |  |  | 
2 | O=C(O)[C@]1(NS(=O)(=O)c2ccc(-n3cc(Br)cn3)s2)C[C@@H]1c1ccccc1 [Example 2-605] |  |  |  | ≥ 1 | ≥ 10 | ≥ 1
3 | O=C(NO)C1(NS(=O)(=O)c2ccc(OCc3ccc(Cl)cc3Cl)cc2)C2CCc3ccccc3C21 (stereo not drawn) [Example 2-360] |  |  |  | < 0.1 | ≥ 10 | < 1
4 | O=C(O)[C@]1(NS(=O)(=O)c2ccc(-c3cccc(C(F)(F)F)c3)s2)C[C@@H]1c1ccccc1 [Example 2-134] | ≥ 10 | ≥ 10 | < 1 |  |  | 
5 | CC(C)C(=O)NCC1(c2ccccc2)CC1(NS(=O)(=O)c1ccc(-c2ccc(Cl)cc2)s1)C(=O)O (stereo not drawn) [Example 2-397] |  |  |  | < 1 | ≥ 10 | < 1
6 | CC1[C@H](c2ccccc2)[C@]1(NS(=O)(=O)c1ccc(-c2cc(C(F)(F)F)on2)o1)C(=O)O (stereo partly drawn) [Example 2-372] |  |  |  | ≥ 1 | ≥ 10 | ≥ 1
7 | CC(C)(C)C1CC1(NS(=O)(=O)c1ccc(-c2ccc(Cl)cc2)s1)C(=O)O (stereo not drawn) [Example 2-62] | < 1 | ≥ 10 | < 1 |  |  | 
8 | O=C(O)C1(NS(=O)(=O)c2ccc(-c3cc(C(F)(F)F)on3)s2)CC1c1cccc(CCO)c1 (stereo not drawn) [Example 2-268] |  |  |  | < 0.1 | ≥ 1 | < 0.1
9 | CN(C)C(=O)CCc1ccc([C@H]2C[C@@]2(NS(=O)(=O)c2ccc(-c3cc(C(F)(F)F)on3)s2)C(=O)O)cc1 [Example 2-282] |  |  |  | < 0.1 | < 1 | < 0.1
10 | C[C@]1(c2ccccc2)C[C@@]1(NS(=O)(=O)c1ccc(-c2cc(C(F)F)on2)s1)C(=O)O [Example 2-382] |  |  |  | < 0.1 | < 1 | < 1
11 | COC(=O)Cc1cccc(C2CC2(NS(=O)(=O)c2ccc(-c3ccc(Cl)cc3)s2)C(=O)O)c1 (stereo not drawn) [Example 2-188] | < 0.1 | ≥ 1 | < 0.1 |  |  | 
12 | O=C(O)C1(NS(=O)(=O)c2ccc(-c3ccc(Cl)cc3)s2)CC1C1CCCC1 (stereo not drawn) [Example 2-61] | < 1 | ≥ 10 | < 1 |  |  | 
13 | Cc1cc(C2CC2(NS(=O)(=O)c2ccc(-c3cc(C(F)(F)F)on3)s2)C(=O)O)no1 (stereo not drawn) [Example 2-313] |  |  |  | < 1 | ≥ 1 | < 1
14 | Cc1nc(-c2ccc(S(=O)(=O)NC3(C(=O)O)CC3c3ccccc3)s2)c(Cl)o1 (stereo not drawn) [Example 2-88] | ≥ 10 | ≥ 10 | ≥ 10 |  |  | 
15 | O=C(O)[C@]1(NS(=O)(=O)c2ccc3c(c2)CN(C2CCCCC2)C3)C[C@@H]1c1ccccc1 [Example 2-166] | ≥ 10 | ≥ 10 | ≥ 10 |  |  | 
16 | O=C(O)[C@]1(NS(=O)(=O)c2ccc(-c3ccc(Cl)nc3)s2)C[C@@H]1c1ccccc1 [Example 2-27] | < 1 | ≥ 10 | < 1 |  |  | 
17 | CCCC(=O)NCC1(c2ccccc2)CC1(NS(=O)(=O)c1ccc(-c2ccc(Cl)cc2)s1)C(=O)O (stereo not drawn) [Example 2-377] |  |  |  | < 1 | ≥ 1 | < 1

Row | SMILES | IC50 (aggrecanase-1; [1]) [µM] | IC50 (MMP-1; [2]) [µM] | IC50 (Recombinant Human MMP-13; [3]) [µM] | IC50 (aggrecanase-1; [4]) [µM] | IC50 (MMP-1; [5]) [µM] | IC50 (Recombinant Human MMP-13; [6]) [µM]
18 | COCCCC1(c2ccccc2)CC1(NS(=O)(=O)c1ccc(-c2ccc(Cl)cc2)s1)C(=O)O (stereo not drawn) [Example 2-559] |  |  |  | < 0.1 | ≥ 1 | < 1
19 | CC1[C@H](c2ccccc2)[C@]1(NS(=O)(=O)c1cn2cc(-c3ccccc3)nc2s1)C(=O)O (stereo partly drawn) [Example 2-499] |  |  |  | < 1 | < 1 | < 0.1
20 | O=C(O)C1(NS(=O)(=O)c2ccc(-c3ccc(Cl)cc3)s2)CC1c1cccc(NS(=O)(=O)C(F)(F)F)c1 (stereo not drawn) [Example 1-132] | < 0.1 | ≥ 1 | < 0.1 |  |  | 
21 | C[C@]1(c2ccccc2)C[C@@]1(NS(=O)(=O)c1ccc(-c2ncc(F)cc2F)s1)C(=O)O [Example 2-466] |  |  |  | < 1 | ≥ 1 | ≥ 1
22 | O=C(O)[C@]1(NS(=O)(=O)c2ccc(-c3cc(C(F)(F)F)on3)s2)C[C@@H]1c1ccccc1Br [Example 2-193] | < 1 | ≥ 10 | < 1 |  |  | 
23 | CC1[C@H](c2ccccc2)[C@]1(NS(=O)(=O)c1ccc(-c2ccc3nonc3c2)s1)C(=O)O (stereo partly drawn) [Example 2-517] |  |  |  | < 0.1 | ≥ 1 | < 1
24 | O=C(O)[C@]1(NS(=O)(=O)c2ccc(-c3cc(CF)on3)cc2)C[C@@H]1c1ccccc1 [Example 2-137] | ≥ 1 | < 1 | < 0.1 |  |  | 
25 | O=C(O)C1(NS(=O)(=O)c2ccc(-c3ccc(Cl)cc3)s2)CC1c1ccccc1OCc1ccccc1 (stereo not drawn) [Example 1-84] | < 1 | ≥ 10 | < 1 |  |  | 
26 | O=C(CCc1ccc([C@H]2C[C@@]2(NS(=O)(=O)c2ccc(-c3cc(C(F)(F)F)on3)s2)C(=O)O)cc1)N1CCOCC1 [Example 2-279] |  |  |  | < 0.1 | < 1 | < 0.1
27 | CS(=O)(=O)Nc1cccc(C2CC2(NS(=O)(=O)c2ccc(-c3ccc(Cl)cc3)s2)C(=O)O)c1 (stereo not drawn) [Example 1-130] | < 0.1 | ≥ 1 | < 0.1 |  |  | 
28 | O=C(O)C1(NS(=O)(=O)c2ccc(-c3cc(C(F)(F)F)on3)s2)C2CCCc3ccccc3C21 (stereo not drawn) [Example 2-305] |  |  |  | < 0.1 | ≥ 1 | < 0.1
29 | CC1[C@H](c2ccccc2)[C@]1(NS(=O)(=O)c1ccc(-c2ccc(Cl)c(N)c2)s1)C(=O)O (stereo partly drawn) [Example 2-496] |  |  |  | < 0.1 | < 1 | < 0.1
30 | O=C(O)[C@]1(NS(=O)(=O)c2ccc(-c3cc(C(F)F)on3)s2)C[C@@H]1c1ccccc1 [Example 2-99] | < 0.1 | < 1 | < 1 |  |  | 
31 | C[C@]1(c2ccccc2)C[C@@]1(NS(=O)(=O)c1ccc(/C=C/C(F)(F)F)s1)C(=O)O [Example 2-562] |  |  |  | ≥ 1 | ≥ 1 | ≥ 1
32 | CS(=O)(=O)CC1(c2ccccc2)CC1(NS(=O)(=O)c1ccc(-c2ccc(Cl)cc2)s1)C(=O)O (stereo not drawn) [Example 2-440] |  |  |  | < 1 | ≥ 10 | < 1
33 | CN(C)CCOc1ccccc1C1CC1(NS(=O)(=O)c1ccc(-c2ccc(Cl)cc2)s1)C(=O)O (stereo not drawn) [Example 2-49] | ≥ 1 | ≥ 10 | ≥ 10 |  |  | 
